US20060194835A1, “Compositions and methods for treating or preventing flaviviridae infections” (priority 2005, published 2006)

Legend:
[1] = tested on: MDBK cells; assay: Drug cytotoxicity in uninfected MDBK cells (MTS/PMS); conditions: uninfected MDBK cells
[2] = tested on: BVDV; assay: Protection of MDBK cells from BVDV-induced cytopathicity (CPE reduction, MTS/PMS); format: cell-based, bovine viral diarrhea virus; conditions: for EC50: 50% CPE reduction; for protection of MDBK cells from BVDV-induced cytopathicity (in words): at the concentrations tested
[3] = in vitro; conditions: bovine
[4] = tested on: BVDV; assay: Triple combination checkerboard CPE assay (celgosivir or castanospermine + interferon-α2b + ribavirin), MacSynergy II; format: cell-based, bovine viral diarrhea virus; conditions: for EC50: read-out: Average Castanospermine EC50
Method: Each double or triple combination was performed twice. The combination efficacy data were analyzed using the MacSynergy™ II software program as described herein.
Each double or triple combination was performed twice. The combination efficacy data were analyzed using the MacSynergy™ II software program as described herein. The EC50 for each of celgosivir and castanospermine was calculated from the triple combination studies described in Example 6.
Each double or triple combination was performed twice. The combination efficacy data were analyzed using the MacSynergy™ software program as described herein. The EC50 for interferon-α2b was calculated from the triple combination studies described in Example 6.

[5] = tested on: MDBK cells; assay: Cytotoxicity of test compound in MDBK cells in the absence of viral infection (Example 1); conditions: absence of viral infection
[6] = tested on: BVDV strain NADL; assay: Inhibition of viral release from BVDV-infected MDBK cells (plaque titer); conditions: MOI = 1; for EC50: inhibits 50% of viral release; for EC50 / EC90: 24 hours; for EC90: inhibits 90% of viral release
[7] = tested on: BVDV; assay: Double combination checkerboard CPE assay, MacSynergy II and isobolograms; format: cell-based, bovine viral diarrhea virus; conditions: at 10 IU/mL interferon-α2b
Method: A double combination assay was performed using MDBK cells infected with BVDV in an inhibition of cytopathic effect (CPE) assay as described in Example 2. The double drug combinations were measured by creating a “checkerboard” of drug concentrations used on cell monolayers in microtiter plates, with one drug being titrated horizontally and the other drug titrated vertically, and each double combination being tested at least twice.
The EC50 values of a first test compound derived while in combination with a second test compound were plotted against the corresponding concentration of the second test compound to create an isobole (dose pair). All of the isoboles were plotted in an isobologram to determine the presence of synergy, antagonism or additivity for the combined test compounds. […] The line connecting the monotherapy EC50 values represents the theoretical additivity effect values for the two compounds.
In addition to generating isobolograms, the checkerboard data was imported into MacSynergy™ II software to graph the observed synergy (or additive or antagonism) volumes for the double combinations tested. Briefly, the calculated additive interactions were subtracted from the experimentally determined values to reveal the corresponding drug concentrations at which a synergistic (indicated by positive % values) or antagonistic (indicated by negative % values) effect is observed. The greater the positive percent volume observed, the greater the synergy between the two compounds. […] In contrast, any value about or less than −25 μM^2% or μM(IU/mL) % is indicative of a significant antagonistic effect. The data presented in Table 5 represent volumes of synergy or antagonism with 95% confidence. The confidence level was calculated using a Bonferroni adjustment as a conservative estimate of significance to statistically evaluate the data.

[8] = Drug cytotoxicity in uninfected MDBK cells (MTS/PMS); conditions: bovine
[9] = Bovine viral diarrhea virus isolates and strains, MDBK, MOI 0.05

## CCCCN1C[C@H](O)[C@@H](O)[C@H](O)[C@H]1CO [NB-DNJ, N-butyldeoxynojirimycin, reference compound]
[1]
  CC50: > 500 µM
[2]; MOI 0.05, read-out: EC50
  EC50: 459 µM

## O=C(N[C@@H](Cc1c[nH]c2ccccc12)C(=O)O)c1ccc2ccn(Cc3ccccc3)c2c1 [2-BAIP, (L)-2-[(1-Benzyl-1H-indole-6-carbonyl)-amino]-3-(1H-indol-3-yl)-propionic acid, reference compound]
[3]
  CC50: > 50 µM
[2]; [9]
  EC50: > 50 µM
[2]
  protection of MDBK cells from BVDV-induced cytopathicity (in words): do not protect

## C[C@@]1(O)[C@H](O)[C@@H](CO)O[C@H]1n1ccc(N)nc1=O [NM-107, 2′-C-methyl cytidine, reference compound]
[3]
  CC50: 228 µM
[2]; Bovine viral diarrhea virus isolates and strains, MDBK, MOI 0.01
  EC50: 2.1 ± 0.5 µM

## Interferon-α2b
[4]; Castanospermine added 0 μM
  Average Interferon-α2b EC50: 16 IU/mL
[4]; Castanospermine added 1.2 μM
  Average Interferon-α2b EC50: 18 IU/mL
[4]; Castanospermine added 3.7 μM
  Average Interferon-α2b EC50: 13 IU/mL
[4]; Castanospermine added 11 μM
  Average Interferon-α2b EC50: 7 IU/mL
[4]; Castanospermine added 33 μM
  Average Interferon-α2b EC50: 1 IU/mL
[4]; Celgosivir added 0 μM
  Average Interferon-α2b EC50: 19 IU/mL
[4]; Celgosivir added 0.25 μM
  Average Interferon-α2b EC50: 21 IU/mL
[4]; Celgosivir added 0.74 μM
  Average Interferon-α2b EC50: 14 IU/mL
[4]; Celgosivir added 2.2 μM
  Average Interferon-α2b EC50: 5 IU/mL
[4]; Celgosivir added 6.7 μM
  Average Interferon-α2b EC50: <1 IU/mL
[4]; at increased concentration of castanospermine or celgosivir
  EC50 of interferon-α2b: less than 1 IU/mL
[4]; without added castanospermine or celgosivir
  EC50 of interferon-α2b: about 20 IU/mL
[1]
  CC50: >300 IU/mL
[2]; MOI 0.01
  EC50: 19.4 ± 6 IU/mL
[5]
  CC50: >1000 IU/mL
[6]
  TI (Therapeutic Index, CC50/EC50): >200
  EC50: 8.0 ± 6.8 IU/mL
  EC90: 114 ± 92 IU/mL

## O[C@H]1[C@H](O)[C@@H](O)CN2CC[C@H](O)[C@H]12 [Castanospermine, [1S-(1α,6β,7α,8β,8aβ)]-octahydro-1,6,7,8-indolizinetetrol]
[4]; Ribavirin 0 μM, Interferon-α2b 0 IU/mL, listed as castanospermine
  EC50: ~52 µM
[4]; Ribavirin 0 μM, Interferon-α2b 0 IU/mL
  EC50: 52.2 ± 9.5 µM
[4]; Ribavirin 0 μM, Interferon-α2b 0.7 IU/mL
  EC50: 39 ± 13.4 µM
[4]; Ribavirin 0 μM, Interferon-α2b 2.2 IU/mL
  EC50: 18.9 ± 2.1 µM
[4]; Ribavirin 0 μM, Interferon-α2b 6.7 IU/mL
  EC50: 11.9 ± 2.5 µM
[4]; Ribavirin 0 μM, Interferon-α2b 20 IU/mL
  EC50: < 1.3 µM
[4]; Ribavirin 0.12 μM, Interferon-α2b 0.7 IU/mL
  EC50: 34.3 ± 3.4 µM
[4]; Ribavirin 0.12 μM, Interferon-α2b 2.2 IU/mL
  EC50: 23.4 ± 2.4 µM
[4]; Ribavirin 0.12 μM, Interferon-α2b 6.7 IU/mL
  EC50: 9.7 ± 4.8 µM
[4]; Ribavirin 0.12 μM, Interferon-α2b 20 IU/mL
  EC50: < 1.4 µM
[4]; Ribavirin 0.37 μM, Interferon-α2b 0.7 IU/mL
  EC50: 27.7 ± 6.3 µM
[4]; Ribavirin 0.37 μM, Interferon-α2b 2.2 IU/mL
  EC50: 19.7 ± 5.2 µM
[4]; Ribavirin 0.37 μM, Interferon-α2b 6.7 IU/mL
  EC50: 6.5 ± 7.5 µM
[4]; Ribavirin 0.37 μM, Interferon-α2b 20 IU/mL
  EC50: < 1.5 µM
[4]; Ribavirin 1.1 μM, Interferon-α2b 0.7 IU/mL
  EC50: 14 ± 4.5 µM
[4]; Ribavirin 1.1 μM, Interferon-α2b 2.2 IU/mL
  EC50: 6.9 ± 1 µM
[4]; Ribavirin 1.1 μM, Interferon-α2b 6.7 IU/mL
  EC50: < 1.2 µM
[4]; Ribavirin 1.1 μM, Interferon-α2b 20 IU/mL
  EC50: < 1.2 µM
[4]; Ribavirin 3.3 μM, Interferon-α2b 0.7 IU/mL
  EC50: < 1.2 µM
[4]; Ribavirin 3.3 μM, Interferon-α2b 2.2 IU/mL
  EC50: < 1.2 µM
[4]; Ribavirin 3.3 μM, Interferon-α2b 6.7 IU/mL
  EC50: < 1.2 µM
[4]; Ribavirin 3.3 μM, Interferon-α2b 20 IU/mL
  EC50: < 1.2 µM
[4]; upon the addition of increasing concentrations of interferon-α2b
  dose-dependent reduction in EC50: up to 52 fold
[7]
  fold reduction of EC50 of castanospermine: more than 7 fold
[1]
  CC50: > 1000 µM
[2]; MOI 0.01, read-out: EC50
  EC50: 62 ± 15 µM
[5]
  CC50: > 2000 µM
[6]
  TI (Therapeutic Index, CC50/EC50): >100
  EC50: 19.4 ± 8.3 µM
  EC90: 89 ± 21 µM

## NC12CC3CC(CC(C3)C1)C2 [Amantadine, amantadine, reference compound]
[8]
  CC50: > 1000 µM
[2]; MOI 0.05
  EC50: 357 µM
[2]; [9]
  EC50: 476 µM

## Interferon-ω: type I interferon, interferon-ω (Cedarlane Laboratories)
[1]
  CC50: >1000 IU/mL
[2]; MOI 0.01
  EC50: 37 ± 1.4 IU/mL

## Peginterferon-α2a
[1]
  CC50: >1000 IU/mL
[2]; MOI 0.01
  EC50: 16.6 ± 11 IU/mL

B1: Interferon-γ: type II interferon (protein, UniProt P01579 24-161, looked up)
Interferon gamma: QDPYVKEAENLKKYFNAGHSDVADNGTLFLGILKNWKEESDRKIMQSQIVSFYFKLFKNFKDDQSIQKSVETIKEDMNVKFFNSNKKKRDDFEKLTNYSVTDLNVQRKAIHELIQVMAELSPAAKTGKRKRSQMLFRG
[1]
  CC50: >1000 IU/mL
[2]; MOI 0.01
  EC50: >1000 IU/mL
[2]
  protection of MDBK cells from BVDV-induced cytopathicity (in words): do not protect
